Data: patent US20250017888A1, “COMPOUNDS FOR TREATING DISEASES ASSOCIATED WITH HYALURONAN OVERPRODUCTION” (THE ROYAL VETERINARY COLLEGE, priority 2021, published 2025)

System: Str/ort mice
Experiment: Micro-CT of tibial trabecular and cortical bone in Str/ort mice
Type: in vivo, mouse
Experimental: At 10-13 weeks of age, 21 male Str/ort mice (n=7/group) were assigned randomly to vehicle, hylin-betaine and xantho-betaine groups and were treated intraperitoneally 18 weeks with either vehicle (5% DMSO in 95% peanut oil), 50 mg/kg compound of Example 1 (“hylin-betaine”) in 5% DMSO and 95% peanut oil or 50 mg/kg compound of Example 2 (“xantho-betaine”) in 5% DMSO and 95% peanut oil. Micro-CT scanning and analysis were performed as described previously. Briefly, tibiae from vehicle, hylin-betaine and xantho-betaine treated groups were scanned using the Skyscan 1172 (Skyscan, Kontich, Belgium), with x-ray tube operated at 50 kV and 200 Micro-A, 1600 ms exposure time with a 0.5 mm aluminium filter and a voxel size of micro-m 5. The scanning time for each sample was approximately 2 hours. The slices were then reconstructed using NRecon 1.6.9.4 (Skyscan, Kontich, Belgium). 2D/3D analyses were performed using CTAn 1.15.4.0+ version software (Skyscan, Kontich, Belgium). Additionally, 3D visualization and production of colour-coded images of trabecular, cortical and skull bones were conducted using Avizo 9.0.0 software (FEI, Oregon USA). • a. Trabecular analysis: prior to analysis, Micro-CT images were re-oriented in DataViewer 1.5.0 (Skyscan, Kontich, Belgium), such that the cross-section within the transverse plane was perpendicular to the long axis of the bone. Tibial length was measured in CTAn 1.15.4.0+ software using a straight line measuring tool and the appearance of the trabecular ‘bridge’ connecting the two primary spongiosa bone ‘islands’ was set as reference point for analysis of the metaphyseal trabecular bone adjacent to the epiphyseal growth plate. 5% of the total bone length from this point (towards the diaphysis) was utilised for trabecular analysis of the proximal tibia. The trabecular region of interest was drawn freehand using the selection tool of CTAn, a few voxels away from the endocortical surfaces in order to avoid inclusion of remnants of primary spongiosa associated with cortical bone. The selected trabecular regions of interests were analysed using CTAn BatMan software (Skyscan, Kontich, Belgium) and morphometric parameters were recorded. • b. Whole bone cortical analysis: Whole bone analysis was performed on datasets derived from CT scans using BoneJ (version 1.4.0), an ImageJ plugin. Following segmentation, alignment and removal of fibula from the dataset, a minimum bone threshold was selected using a histogram based method in ImageJ which utilises all pixels in a stack to construct a histogram and was further confirmed using ImageJ “threshold function”. The threshold ranged between 22000-22100 and was applied to all datasets to separate higher density bone from soft tissues and air. This threshold was used in “Slice Geometry” function within BoneJ to calculate bone cross sectional area (CSA), second moment of area around the minor axis (Imin), second moment of area around the major axis (Imax), mean thickness determined by local thickness in two dimensions (Ct.Th), ellipticity and resistance to torsion (J). The most proximal (15%) and the most distal portions (25%) of tibial length were excluded from analysis, as these regions include trabecular bone.

COc1cc(O)c(CC=C(C)C)c(O)c1C(=O)/C=C/c1ccc(OC(=O)C[N+](C)(C)C)cc1.[Cl-] [Xantho-betaine, (E)-2-(4-(3-(2,4-dihydroxy-6-methoxy-3-(3-methylbut-2-en-1-yl)phenyl)-3-oxoprop-1-en-1-yl)phenoxy)-N,N,N-trimethyl-2-oxoethanaminium chloride]
metaphyseal trabecular bone architecture and mass (tibial length, BV/TV, TV, BV, eccentricity, thickness, separation, number) (50 mg/kg intraperitoneally, 18 weeks, vs vehicle): do not alter | cortical cross-sectional area (CSA) (apart from one distal region and a region close to tibio-fibula junction): do not significantly | predicted tibial resistance to torsion (J) (multiple regions across tibial length, vs vehicle): higher | mean cortical cross-sectional thickness (multiple regions from −15-60% tibial length, vs vehicle): higher in some regions and lower in other regions | second moment of area around minor axis (Imin) (vs vehicle, one region proximally): significantly lowers | tibial ellipticity (vs vehicle, region ˜40-50% along the tibia): greater ellipticity | second moment of area around major axis (Imax) (vs vehicle, ˜35-55% of tibial length): significantly increased
